From ChEMBL document CHEMBL5608235, “Tricyclic Benzo[1,3]oxazinyloxazolidinones as Potent Antibacterial Agents against Drug-Resistant Pathogens” (J Med Chem, 2024)
Values after ≈ are worked out from the molar mass of the structure shown.

How the values were obtained:
Bacillus subtilis = experiment: Antibacterial activity against Bacillus subtilis ATCC6633 assessed as inhibition of bacterial growth incubated for 18 hrs by microdilution broth assay; type: functional
Enterococcus faecalis [1] = experiment: Antibacterial activity against Enterococcus faecalis ATCC29212 assessed as inhibition of bacterial growth incubated for 18 hrs by microdilution broth assay; type: functional
Staphylococcus aureus [2] = experiment: Antibacterial activity against Staphylococcus aureus ATCC25923 assessed as inhibition of bacterial growth incubated for 18 hrs by microdilution broth assay; type: functional
[3] = Cytotoxicity against African green monkey Vero cells incubated for 48 hrs by MTT assay; type: toxicity, cell-based, Chlorocebus sabaeus
[4] = system: Mycobacterium tuberculosis; experiment: Antibacterial activity against Mycobacterium tuberculosis H37Rv assessed as inhibition of bacterial growth incubated for 7 days by alamar blue assay; type: functional; settings: 168 h, time 7 day
Enterococcus = experiment: Antibacterial activity against vancomycin resistant Enterococcus clinical isolate 20-1 assessed as inhibition of bacterial growth incubated for 7 days by alamar blue assay; type: functional; settings: clinical isolate 20-1, 168 h, time 7 day
Staphylococcus aureus [5] = experiment: Antibacterial activity against Linezolid resistant Staphylococcus aureus clinical isolate 20-2 assessed as inhibition of bacterial growth incubated for 7 days by alamar blue assay; type: functional; settings: clinical isolate 20-2, 168 h, time 7 day
[6] = system: Staphylococcus epidermidis; experiment: Antibacterial activity against methicillin resistant Staphylococcus epidermidis clinical isolate 20-2 assessed as inhibition of bacterial growth incubated for 7 days by alamar blue assay; type: functional; settings: clinical isolate 20-2, 168 h, time 7 day
Staphylococcus aureus [7] = experiment: Antibacterial activity against Linezolid resistant Staphylococcus aureus clinical isolate 20-1 assessed as inhibition of bacterial growth incubated for 7 days by alamar blue assay; type: functional; settings: clinical isolate 20-1, 168 h, time 7 day
Staphylococcus aureus [8] = experiment: Antibacterial activity against methicillin resistant Staphylococcus aureus clinical isolate 20-1 assessed as inhibition of bacterial growth incubated for 7 days by alamar blue assay; type: functional; settings: clinical isolate 20-1, 168 h, time 7 day
Staphylococcus aureus [9] = experiment: Antibacterial activity against vancomycin intermediate Staphylococcus aureus ATCC700699 assessed as inhibition of bacterial growth incubated for 7 days by alamar blue assay; type: functional; settings: ATCC700699, 168 h, time 7 day
Staphylococcus aureus [10] = experiment: Antibacterial activity against methicillin resistant Staphylococcus aureus clinical isolate 20-2 assessed as inhibition of bacterial growth incubated for 7 days by alamar blue assay; type: functional; settings: clinical isolate 20-2, 168 h, time 7 day
Enterococcus faecalis [11] = experiment: Antibacterial activity against Linezolid resistant Enterococcus faecalis clinical isolate 20-2 assessed as inhibition of bacterial growth incubated for 7 days by alamar blue assay; type: functional; settings: clinical isolate 20-2, 168 h, time 7 day
Enterococcus faecalis [12] = experiment: Antibacterial activity against Linezolid resistant Enterococcus faecalis clinical isolate 20-1 assessed as inhibition of bacterial growth incubated for 7 days by alamar blue assay; type: functional; settings: clinical isolate 20-1, 168 h, time 7 day
[13] = system: Staphylococcus epidermidis; experiment: Antibacterial activity against methicillin resistant Staphylococcus epidermidis clinical isolate 20-1 assessed as inhibition of bacterial growth incubated for 7 days by alamar blue assay; type: functional; settings: clinical isolate 20-1, 168 h, time 7 day
[14] = system: Staphylococcus epidermidis; experiment: Antibacterial activity against Staphylococcus epidermidis ATCC12228 assessed as inhibition of bacterial growth incubated for 18 hrs by microdilution broth assay; type: functional
[15] = Metabolic stability in ICR mouse liver microsomes assessed as substrate remaining at 10 uM incubated for 60 mins in presence of NADPH by LC-MS/MS analysis; type: ADME, Microsome; settings: read-out: Stability
[16] = Metabolic stability in human liver microsomes assessed as substrate remaining at 10 uM incubated for 60 mins in presence of NADPH by LC-MS/MS analysis; type: ADME, Microsome; settings: read-out: Stability
[17] = Oral bioavailability in BALB/c mouse at 10 mg/kg administration measured upto 24 hrs by LC-MS/MS analysis; type: ADME, organism-based; settings: BALB/c, in vivo

Row | Compound | MIC (Bacillus subtilis) [µg/mL] | MIC (Enterococcus faecalis [1]) [µg/mL] | MIC (Staphylococcus aureus [2]) [µg/mL] | IC50 at 48 h [3] [µg/mL] | MIC [4] [µg/mL] | MIC [14] [µg/mL] | further results
1 | CC(=O)NC[C@H]1OC(=O)N2Cc3cc(-c4ccc(C#N)nc4)c(F)cc3O[C@@H]12 | 0.125 (≈ 0.327 µM) | 0.5 (≈ 1.31 µM) | 0.125 (≈ 0.327 µM) | > 64 | 0.48 (≈ 1.26 µM) |  | 
2 | CC(=O)NC[C@@H]1OC(=O)N2Cc3c(cc(F)c(-c4ccc(-c5nnn(C)n5)nc4)c3F)O[C@@H]12 | 0.125 (≈ 0.273 µM) | 2 (≈ 4.37 µM) | 1 (≈ 2.19 µM) | > 64 | 0.74 (≈ 1.62 µM) | 2 (≈ 4.37 µM) | MIC (Enterococcus): 1 µg/mL (≈ 2.19 µM); MIC (Staphylococcus aureus [5]): 8 µg/mL (≈ 17.5 µM); MIC [6]: 0.5 µg/mL (≈ 1.09 µM); MIC (Staphylococcus aureus [7]): 8 µg/mL (≈ 17.5 µM); MIC (Staphylococcus aureus [8]): 1 µg/mL (≈ 2.19 µM); MIC (Staphylococcus aureus [9]): 1 µg/mL (≈ 2.19 µM); MIC (Staphylococcus aureus [10]): 1 µg/mL (≈ 2.19 µM); MIC (Enterococcus faecalis [11]): 2 µg/mL (≈ 4.37 µM); MIC (Enterococcus faecalis [12]): 2 µg/mL (≈ 4.37 µM); MIC [13]: 0.5 µg/mL (≈ 1.09 µM)
3 | CC(=O)c1ccc(-c2c(F)cc3c(c2F)CN2C(=O)O[C@@H](CN)[C@@H]2O3)cc1 | > 64 | > 64 | 64 (≈ 171 µM) | 34 (≈ 90.8 µM) | 0.43 (≈ 1.15 µM) | 64 (≈ 171 µM) | 
4 | CC(=O)NC[C@H]1OC(=O)N2Cc3c(cc(F)c(-c4ccc(-c5nnn(C)n5)nc4)c3F)O[C@H]12 | > 64 | > 64 | > 64 |  | > 32 | > 64 | 
5 | CC(=O)NC[C@H]1OC(=O)N2Cc3cc(-c4ccc(-c5nnn(C)n5)nc4)c(F)cc3O[C@@H]12 | 0.125 (≈ 0.284 µM) | 0.5 (≈ 1.14 µM) | 0.125 (≈ 0.284 µM) |  | 0.54 (≈ 1.23 µM) |  | 
6 | CC(=O)NC[C@@H]1OC(=O)N2Cc3cc(-c4ccnc(C#N)c4)c(F)cc3O[C@@H]12 | 0.25 (≈ 0.654 µM) | 1 (≈ 2.62 µM) | 4 (≈ 10.5 µM) | > 64 | 1.85 (≈ 4.84 µM) | 1 (≈ 2.62 µM) | 
7 | CC(=O)NC[C@@H]1OC(=O)N2Cc3cc(-c4ccc5c(c4)NC(=O)CO5)c(F)cc3O[C@@H]12 | 16 (≈ 37.4 µM) | 1 (≈ 2.34 µM) | 32 (≈ 74.9 µM) | 40 (≈ 93.6 µM) | 0.9 (≈ 2.11 µM) | 2 (≈ 4.68 µM) | 
8 | COc1cc(-c2cc3c(cc2F)O[C@H]2[C@H](CNC(C)=O)OC(=O)N2C3)ccn1 | 0.5 (≈ 1.29 µM) | 1 (≈ 2.58 µM) | 4 (≈ 10.3 µM) | 36 (≈ 92.9 µM) | 6.51 (≈ 16.8 µM) | 2 (≈ 5.16 µM) | 
9 | Cc1ncc2n1-c1ccc(Cl)cc1C(c1ccccc1F)=NC2 [MIDAZOLAM] |  |  |  |  |  |  | remaining at 1 h, 10 µM [15]: 48.9%; remaining at 1 h, 10 µM [16]: 62%
10 | N#Cc1ccc(-c2c(F)cc3c(c2F)CN2C(=O)O[C@@H](CN)[C@@H]2O3)cn1 | > 64 | > 64 | > 64 | 59 (≈ 165 µM) | 0.5 (≈ 1.4 µM) | 64 (≈ 179 µM) | 
11 | Cn1nnc(-c2ccc(-c3c(F)cc4c(c3F)CN3C(=O)O[C@@H](CN)[C@@H]3O4)cn2)n1 | 64 (≈ 154 µM) | > 64 | > 64 | 16 (≈ 38.5 µM) | 0.74 (≈ 1.78 µM) | 64 (≈ 154 µM) | 
12 | CC(=O)NC[C@@H]1OC(=O)N2Cc3c(cc(F)c(-c4ccc(C(C)=O)cc4)c3F)O[C@@H]12 | 0.125 (≈ 0.3 µM) | 0.25 (≈ 0.6 µM) | 4 (≈ 9.61 µM) | > 64 | 0.93 (≈ 2.23 µM) | 0.25 (≈ 0.6 µM) | 
13 | CC(=O)Nc1ccc(O)cc1 [ACETAMINOPHEN] |  |  |  |  |  |  | bioavailability [17]: 27.6%
